Measurements published in US11072628B2, “Nucleoside analogues for the treatment of parasitic infections” (UNIVERSITEIT GENT, priority 2017, dated 2021).
Where two headings read alike, the source gives them in different places.

Experiments:
T. brucei Squib 427 = experiment: In vitro drug susceptibility, T. brucei Squib 427 (resazurin); format: cell-based, Trypanosoma brucei brucei; settings: Trypanosoma brucei
Protocol: (§1) All trypanosome strains were cultured in the standard HMI-9 medium supplemented with 10% fetal bovine serum (FBS) at 37° C. in a 5% CO2 atmosphere.

[1] = Cytotoxicity against MRC-5 fibroblasts; settings: human
Protocol: Cytotoxicity was assayed against MRC-5 fibroblasts. Results are depicted in Tables 4 and 5.

[2] = test system: T. cruzi Tulahuen CL2 β galactosidase strain; experiment: T. cruzi Tulahuen CL2 β galactosidase strain on MRC-5SV2 cells (CPRG); format: cell-based, Trypanosoma cruzi; settings: Trypanosoma cruzi, TULAHUEN, MRC-5 SV2
Protocol: All cultures and assays were conducted at 37° C./5% CO2. […] The results were expressed as % reduction in parasite burdens compared to control wells from which an EC50 was calculated.

[3] = test system: T. b. rhodesiense STIB-900; experiment: In vitro drug susceptibility, T. b. rhodesiense STIB-900 (resazurin); format: cell-based, Trypanosoma brucei rhodesiense; settings: Trypanosoma brucei, RHODESIENSE
Protocol: as §1

[4] = read-out: T. brucei brucei EC50, Table 1, average of 2-4 independent determinations
[5] = MRC-5 fibroblasts, MRC-5 EC50, Table 1, cytotoxicity
[6] = MRC-5 fibroblasts, MRC-5 EC50, Table 2, cytotoxicity
[7] = Table 2, average of 2-3 independent replicates
[8] = read-out: T.b. brucei EC50, Table 4, average of 2-6 independent determinations
[9] = MRC-5 fibroblasts, MRC-5 EC50, Table 4, cytotoxicity
[10] = MRC-5 fibroblasts, MRC-5 EC50, Table 5, cytotoxicity
[11] = Table 5, average of 2-4 independent replicates

Row | SMILES | EC50 (T. brucei Squib 427; [4]) [nM] | EC50 [2, 7] [µM] | EC50 ([3]; read-out: T. brucei rhod. EC50) [nM] | EC50 (T. brucei Squib 427; [8]) [nM] | EC50 [1, 9] [µM] | EC50 [1, 10] [µM] | EC50 [2, 11] [µM] | EC50 ([3]; read-out: T.b. rhod. EC50) [nM] | also measured
1 | CN(C)c1ncnc2c1c(Br)cn2[C@@H]1O[C@H](CO)C[C@H]1O [FH8522, 4-dimethylamino-5-bromo-N7-(3′-deoxy-β-D-ribofuranosyl)-pyrrolo[2,3-d]pyrimidine] | 1880 | 20.9 | 790 |  |  |  |  |  | EC50 [1, 5]: > 64 µM; EC50 [1, 6]: > 64 µM
2 | COc1ncnc2c1c(Br)cn2[C@@H]1O[C@H](CO)[C@@H](O)[C@H]1O [FH9528, 4-methoxy-5-bromo-(N7-β-D-ribofuranosyl)-pyrrolo[2,3-d]pyrimidine] |  |  |  | 190 | > 64 | > 64 | 24.1 | 40 | 
3 | CCOc1ncnc2c1c(Cl)cn2[C@@H]1O[C@H](CO)[C@@H](O)[C@H]1O [FH9529, 4-ethoxy-5-chloro-N7-(β-D-ribfuranosyl)-pyrrolo[2,3-d]pyrimidine] |  |  |  | 120 | 48.5 | 48.5 | 6.29 | 60 | 
4 | CCCCOc1ncnc2c1c(Cl)cn2[C@@H]1O[C@H](CO)[C@@H](O)[C@H]1O [FH9530, 4-n-butoxy-5-chloro-N7-(β-D-ribofuranosyl)-pyrrolo[2,3-d]pyrimidine] |  |  |  | 70 | 1.32 | 1.32 | 0.45 | 40 | 
5 | CC(C)Oc1ncnc2c1c(Cl)cn2[C@@H]1O[C@H](CO)[C@@H](O)[C@H]1O [FH9531, 4-isopropoxy-5-chloro-N7-(β-D-ribfuranosyl)-pyrrolo[2,3-d]pyrimidine] |  |  |  | 90 | > 64 | > 64 | 22.7 | 100 | 
6 | CCCOc1ncnc2c1c(Cl)cn2[C@@H]1O[C@H](CO)[C@@H](O)[C@H]1O [FH9532, 4-n-propoxy-5-chloro-N7-(β-D-ribfuranosyl)-pyrrolo[2,3-d]pyrimidine] |  |  |  | 80 | 2.81 | 2.81 | 1.04 | 80 | 
7 | CC(C)(C)[Si](C)(C)O[C@@H]1C[C@@H](CO)O[C@H]1n1cc(Br)c2c(N)ncnc21 [FH9552, 4-amino-5-bromo-N7-(2′-O-t-butyldimethylsilyl-3′-deoxy-β-D-ribofuranosyl)-pyrrolo[2,3-d]pyrimidine] |  |  |  |  |  |  |  |  | EC50 (T. brucei Squib 427; Table 1, average of 2-4 independent determinations, read-out: T. brucei brucei EC50): 630 nM; EC50 [1]: > 64 µM; EC50 ([3]; Table 1, average of 2-4 independent determinations, read-out: T. brucei rhod. EC50): 270 nM
8 | Nc1ncnc2c1c(-c1ccc(Cl)cc1Cl)cn2[C@@H]1O[C@H](CO)C[C@H]1O [FH9581, 4-amino-5-(2,4-dichlorophenyl)-N7-(3′-deoxy-β-D-ribofuranosyl)-pyrrolo[2,3-d]pyrimidine] | 19600 | 0.5 | 7300 |  |  |  |  |  | EC50 [1, 5]: 19.6 µM; EC50 [1, 6]: 19.6 µM
9 | Nc1ncnc2c1c(Br)cn2[C@@H]1O[C@H](CO)C[C@@H]1O [FH10628, 4-amino-5-bromo-N7-(2′-arabino-3′-deoxy-β-D-ribofuranosyl)-pyrrolo[2,3-d]pyrimidine] | 130 | 1.47 | 30 |  |  |  |  |  | EC50 [1, 5]: 45.6 µM; EC50 [1, 6]: 45.6 µM
10 | Nc1ncnc2c1ccn2[C@@H]1O[C@H](CO)C[C@@H]1O [FH10650, 4-amino-N7-(2′-arabino-3′-deoxy-β-D-ribofuranosyl)-pyrrolo[2,3-d]pyrimidine] | 6620 | > 64 | 600 |  |  |  |  |  | EC50 [1, 5]: > 64 µM; EC50 [1, 6]: > 64 µM
11 | C=Cc1cn([C@@H]2O[C@H](CO)C[C@H]2O)c2ncnc(N)c12 [FH10659, 4-amino-5-vinyl-N7-(3′-deoxy-β-D-ribfuranosyl)-pyrrolo[2,3-d]pyrimidine] | 40 | 9.44 | 5 |  |  |  |  |  | 
12 | Nc1ncnc2c1c(-c1cccc(Cl)n1)cn2[C@@H]1O[C@H](CO)[C@@H](O)[C@H]1O [MS1034, 4-amino-5-(6-chloro-pyrid-2-yl)-N7-(β-D-ribofuranosyl)-pyrrolo[2,3-d]pyrimidine] |  |  |  | 1750 | > 64 | > 64 | > 64 | 620 | 
13 | Nc1ncnc2c1c(-c1ccc(F)cn1)cn2[C@@H]1O[C@H](CO)[C@@H](O)[C@H]1O [MS1037, 4-amino-5-(5-fluoro-pyrid-2-yl)-N7-(β-D-ribofuranosyl)-pyrrolo[2,3-d]pyrimidine] |  |  |  | 4770 | > 64 | > 64 | 31.9 | 1690 | 
14 | Nc1ncnc2c1c(Br)cn2[C@@H]1O[C@H](CO)[C@@H](O)[C@H]1O [TH1003] |  |  |  |  |  |  | 0.39 |  | EC50 (T. brucei Squib 427; Table 4, average of 2-6 independent determinations, read-out: T.b. brucei EC50): 1240 nM; EC50 ([1]; MRC-5 EC50): 33.3 µM; EC50 ([3]; Table 4, average of 2-6 independent determinations, read-out: T.b. rhod. EC50): 120 nM
